In PubChem BioAssay AID1259411 (Chemical Carcinogenesis Research Information System (CCRIS), 2018):
Calls of active or inactive are those of the source. How the calls were made is not given here.

Test system: rodent carcinogenicity bioassays, tumor incidence
Assay: CCRIS carcinogenicity studies
Summary of the method: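 NCI-built, expert-reviewed records of carcinogenicity and related test outcomes (mutagenicity, tumor promotion/inhibition) compiled from published and report sources, historical span 1985-2011, not updated.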

[1] = Species: RAT, Route: ORAL, Tumor Site: Type of Lesion: LIVER

Q: How did the carcinogen call (Species: RAT, Strain/Sex: F344/FEMALE, Route: ORAL, Dose: 0, 0.1, 0.2% IN DIET FOR DURATION OF STUDY (STUDY DURATION: 64 WK), Dose: 0, 0.1, 0.2% IN DIET FOR DURATION OF STUDY (STUDY DURATION: 64 WK)) turn out when `O=c1c(O)c(-c2ccc(O)c(O)c2)oc2cc(O)cc(O)c12` was run?
A: inactive; negative

Q: What about the carcinogen call (Species: RAT, Strain/Sex: F344/FEMALE, Route: ORAL, Dose: 0, 1.25, 5.0% IN DIET FOR 104 WK (STUDY DURATION: 112 WK), Dose: 0, 1.25, 5.0% IN DIET FOR 104 WK (STUDY DURATION: 112 WK)) of the same molecule?
A: inactive; negative

Q: What about the carcinogen call (Species: RAT, Strain/Sex: F344/FEMALE, Route: ORAL, Dose: 0, 1,000, 10,000, 40,000 PPM IN DIET FOR 104 WK (STUDY DURATION: 104 WK), Dose: 0, 1,000, 10,000, 40,000 PPM IN DIET FOR 104 WK (STUDY DURATION: 104 WK)) of the same molecule?
A: inactive; negative

Q: What about the carcinogen call (Species: RAT, Strain/Sex: F344/MALE, Route: ORAL, Dose: 0, 0.1, 0.2% IN DIET FOR DURATION OF STUDY (STUDY DURATION: 64 WK), Dose: 0, 0.1, 0.2% IN DIET FOR DURATION OF STUDY (STUDY DURATION: 64 WK)) of the same molecule?
A: inactive; negative

Q: What about the carcinogen call (Species: RAT, Strain/Sex: F344/MALE, Route: ORAL, Dose: 0, 1.25, 5.0% IN DIET FOR 104 WK (STUDY DURATION: 112 WK), Dose: 0, 1.25, 5.0% IN DIET FOR 104 WK (STUDY DURATION: 112 WK)) of the same molecule?
A: inactive; negative

Q: What about the carcinogen call (Species: RAT, Strain/Sex: F344/MALE, Route: ORAL, Dose: 0, 1,000, 10,000, 40,000 PPM IN DIET FOR 104 WK (STUDY DURATION: 104 WK), Dose: 0, 1,000, 10,000, 40,000 PPM IN DIET FOR 104 WK (STUDY DURATION: 104 WK), Tumor Site: Type of Lesion: KIDNEY (RENAL TUBULE): ADENOMA) of the same molecule?
A: active; positive

Q: With `CN(C)c1ccc(C(=N)c2ccc(N(C)C)cc2)cc1` as the molecule, how does the carcinogen call (Species: HUMAN, Route: ORAL, INHALATION, DERMAL, Tumor Site: Type of Lesion: URINARY BLADDER) read?
A: active; positive

Q: And the carcinogen call (Species: MOUSE, Route: ORAL, Tumor Site: Type of Lesion: LIVER, LYMPHATIC SYSTEM: LYMPHOMA)?
A: active; positive

Q: What about the carcinogen call [1] of the same molecule?
A: active; positive

Q: What about the carcinogen call (Species: RAT, Route: SUBCUTANEOUS, Tumor Site: Type of Lesion: INJECTION SITE) of the same molecule?
A: active; positive

Q: With `CN(C)/C=N/c1nnc(/C=C/c2ccc([N+](=O)[O-])o2)o1` as the molecule, how does the carcinogen call (Species: RAT, Route: ORAL, Tumor Site: Type of Lesion: MAMMARY GLAND, INTESTINES) read?
A: active; positive

Q: Which results are given for `Nc1ccc2cc3ccccc3cc2c1`?
A: carcinogen call (Species: HAMSTER, Strain/Sex: SYRIAN, Route: DERMAL, Dose: 4 DROPS OF 1% SOLN IN ACETONE 2/WK FOR 10 WK, 8 DROPS FOR 40 WK, 4 DROPS FOR 5 WK, Tumor Site: Type of Lesion: INTEGUMENTARY SYSTEM (SKIN): PAPILLOMA, EPIDERMAL TUMOR): active; positive; carcinogen call (Species: MOUSE, Strain/Sex: MALE,FEMALE, Route: DERMAL, Dose: 1% SATURATED SOLN IN ACETONE 2/WK (0.025 ML FOR 30 D OR 0.1 ML FOR 140 D), THEN 0.05 ML THEREAFTER, Tumor Site: Type of Lesion: INTEGUMENTARY SYSTEM (SKIN): SQUAMOUS CELL EPITHELIOMA): active; positive; carcinogen call (Species: RAT, Strain/Sex: ALBINO/MALE, Route: DERMAL, Dose: 1% IN ACETONE 2/WK FOR 34-36 WK, Tumor Site: Type of Lesion: INTEGUMENTARY SYSTEM (SKIN): SQUAMOUS CELL CARCINOMA, BASAL CELL EPITHELIOMA, FIBROSARCOMA): active; positive; carcinogen call (Species: RAT, Strain/Sex: F344/MALE,FEMALE, Route: DERMAL, Dose: 0.18 ML OF 1% SOLN IN ACETONE 2/WK FOR 180 OR 250-300 D, Tumor Site: Type of Lesion: INTEGUMENTARY SYSTEM (SKIN): SQUAMOUS CELL CARCINOMA, BASAL CELL EPITHELIOMA, FIBROSARCOMA): active; positive; carcinogen call (Species: RAT, Strain/Sex: HOLTZMAN/MALE,FEMALE, Route: DERMAL, Dose: 0.18 ML OF 1% SOLN IN ACETONE 2/WK FOR 180 OR 250-300 D, Tumor Site: Type of Lesion: INTEGUMENTARY SYSTEM (SKIN): SQUAMOUS CELL CARCINOMA, BASAL CELL EPITHELIOMA, FIBROSARCOMA): active; positive; carcinogen call (Species: RAT, Strain/Sex: LONG-EVANS/MALE,FEMALE, Route: DERMAL, Dose: 0.18 ML OF 1% SOLN IN ACETONE 2/WK FOR 180 OR 250-300 D, Tumor Site: Type of Lesion: INTEGUMENTARY SYSTEM (SKIN): SQUAMOUS CELL CARCINOMA, BASAL CELL EPITHELIOMA, FIBROSARCOMA): active; positive; carcinogen call (Species: RAT, Strain/Sex: SPRAGUE-DAWLEY/FEMALE, Route: GAVAGE, Dose: 0.05, 1.0, 2.5 MG IN 1 ML SESAME OIL 1/3 D FOR 10 D (TOTAL DOSE 0.5-25 MG), Dose: 0.05, 1.0, 2.5 MG IN 1 ML SESAME OIL 1/3 D FOR 10 D (TOTAL DOSE 0.5-25 MG), Tumor Site: Type of Lesion: MAMMARY GLAND): active; positive

Q: What does the source list for `CCOc1ccc(NC(C)=O)cc1[N+](=O)[O-]`?
A: carcinogen call (Species: MOUSE, Strain/Sex: B6C3F1/FEMALE, Route: ORAL, Dose: 0, 0.73, 1.46% OF DIET, TWA, Dose: 0, 0.73, 1.46% OF DIET, TWA): inactive; negative; carcinogen call (Species: MOUSE, Strain/Sex: B6C3F1/MALE, Route: ORAL, Dose: 0, 0.73, 1.46% OF DIET, TWA, Dose: 0, 0.73, 1.46% OF DIET, TWA, Tumor Site: Type of Lesion: LIVER: HEPATOCELLULAR CARCINOMA OR ADENOMA): active; positive; carcinogen call (Species: RAT, Strain/Sex: F344/FEMALE, Route: ORAL, Dose: 0, 0.18, 0.36% OF DIET, TWA, Dose: 0, 0.18, 0.36% OF DIET, TWA): inactive; negative; carcinogen call (Species: RAT, Strain/Sex: F344/MALE, Route: ORAL, Dose: 0, 0.18, 0.36% OF DIET, TWA, Dose: 0, 0.18, 0.36% OF DIET, TWA): inactive; negative

Q: With `Nc1ccc(N=Nc2ccccc2)cc1` as the molecule, how does the carcinogen call (Species: MOUSE, Strain/Sex: B6C3F1/FEMALE, Route: INTRAPERITONEAL, Dose: 0, 0.3 UMOL/G IN TRIOCTANOIN ONCE ON DAY 1 FOLLOWED BY 0.4 UMOL/G ONCE ON DAY 8, 15 AND 22 (STUDY DURATION: UP TO 10 MO)) read?
A: inactive; negative

Q: And the carcinogen call (Species: MOUSE, Strain/Sex: B6C3F1/MALE, Route: INTRAPERITONEAL, Dose: 0, 0.017, 0.05, 0.15, 0.45 UMOL/G ONCE IN TRIOCTANOIN (STUDY DURATION: 10 MO), Dose: 0, 0.017, 0.05, 0.15, 0.45 UMOL/G ONCE IN TRIOCTANOIN (STUDY DURATION: 10 MO), Tumor Site: Type of Lesion: LIVER: HEPATOMA)?
A: active; positive

Q: And the carcinogen call (Species: MOUSE, Strain/Sex: B6C3F1/MALE, Route: INTRAPERITONEAL, Dose: 0, 0.3 UMOL/G IN TRIOCTANOIN ONCE ON DAY 1 FOLLOWED BY 0.4 UMOL/G ONCE ON DAY 8, 15 AND 22 (STUDY DURATION: UP TO 10 MO), Tumor Site: Type of Lesion: LIVER: HEPATOMA)?
A: active; positive

Q: And the carcinogen call (Species: MOUSE, Strain/Sex: C3H/MALE, Route: INTRAPERITONEAL, Dose: 0, 0.45 UMOL/G ONCE IN TRIOCTANOIN (STUDY DURATION: 11 MO), Tumor Site: Type of Lesion: LIVER: HEPATOMA)?
A: active; positive

Q: What about the carcinogen call (Species: MOUSE, Strain/Sex: C57BL/MALE, Route: INTRAPERITONEAL, Dose: 0, 0.45 UMOL ONCE IN TRIOCTANOIN (STUDY DURATION: 11 MO), Tumor Site: Type of Lesion: LIVER: HEPATOMA) of the same molecule?
A: active; positive

Q: And the carcinogen call (Species: RAT, Route: DERMAL, Tumor Site: Type of Lesion: INTEGUMENTARY SYSTEM (SKIN))?
A: active; positive

Q: And the carcinogen call [1]?
A: active; positive

Q: What about the carcinogen call (Species: RAT, Strain/Sex: F344/MALE, Route: INTRAPERITONEAL, Dose: 0, 0.3 UMOL/G IN TRIOCTANOIN ONCE ON DAY 1 FOLLOWED BY 0.4 UMOL/G ONCE ON D 8, 15 AND 22 (STUDY DURATION: 24 MO)) of the same molecule?
A: inactive; negative

Q: For `O=[N+]([O-])c1ccc(/C=C/c2cnc(N(CO)CO)nn2)o1`, which carcinogen call (Species: RAT, Strain/Sex: WISTAR/MALE, Route: ORAL, Dose: 0, 350, 1750, 3500 PPM IN POWDERED BASAL DIET (STUDY DURATION: 35 WK), Dose: 0, 350, 1750, 3500 PPM IN POWDERED BASAL DIET (STUDY DURATION: 35 WK), Tumor Site: Type of Lesion: FORESTOMACH, SQUAMOUS CELL PAPILLOMA, DUODENUM: ADENOCARCINOMA, SMALL INTESTINE: ADENOCARCINOMA, Tumor Site: Type of Lesion: FORESTOMACH, SQUAMOUS CELL PAPILLOMA, DUODENUM: ADENOCARCINOMA, SMALL INTESTINE: ADENOCARCINOMA) is on record?
A: active; positive
